How the values were obtained:
[1] = target: T1, Cholecystokinin receptor type A (Homo sapiens, UniProt P32238); experiment: Displacement of [3H]L-364718 from human recombinant CCK1 receptor expressed in CHOK1 cells; assay type: cell-based, CHO-K1
T1 sequence (P32238 whole entry): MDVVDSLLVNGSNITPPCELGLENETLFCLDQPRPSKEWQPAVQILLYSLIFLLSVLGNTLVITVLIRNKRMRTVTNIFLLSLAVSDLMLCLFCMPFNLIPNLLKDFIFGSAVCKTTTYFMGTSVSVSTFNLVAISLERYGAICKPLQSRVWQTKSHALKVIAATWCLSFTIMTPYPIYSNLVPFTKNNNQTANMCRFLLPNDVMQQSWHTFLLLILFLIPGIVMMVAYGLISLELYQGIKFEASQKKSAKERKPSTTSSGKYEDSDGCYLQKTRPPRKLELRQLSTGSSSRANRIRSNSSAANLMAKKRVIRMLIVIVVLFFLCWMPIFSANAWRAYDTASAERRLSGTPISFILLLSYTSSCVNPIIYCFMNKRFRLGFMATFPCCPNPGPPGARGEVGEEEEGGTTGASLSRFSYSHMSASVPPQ

[2] = target: T2, Gastrin/cholecystokinin type B receptor (Canis lupus familiaris, UniProt P30552); experiment: Displacement of [125I]BH-[…] from CCK2 receptor in canine gastric mucosa; assay type: tissue-based
T2 sequence (P30552 whole entry): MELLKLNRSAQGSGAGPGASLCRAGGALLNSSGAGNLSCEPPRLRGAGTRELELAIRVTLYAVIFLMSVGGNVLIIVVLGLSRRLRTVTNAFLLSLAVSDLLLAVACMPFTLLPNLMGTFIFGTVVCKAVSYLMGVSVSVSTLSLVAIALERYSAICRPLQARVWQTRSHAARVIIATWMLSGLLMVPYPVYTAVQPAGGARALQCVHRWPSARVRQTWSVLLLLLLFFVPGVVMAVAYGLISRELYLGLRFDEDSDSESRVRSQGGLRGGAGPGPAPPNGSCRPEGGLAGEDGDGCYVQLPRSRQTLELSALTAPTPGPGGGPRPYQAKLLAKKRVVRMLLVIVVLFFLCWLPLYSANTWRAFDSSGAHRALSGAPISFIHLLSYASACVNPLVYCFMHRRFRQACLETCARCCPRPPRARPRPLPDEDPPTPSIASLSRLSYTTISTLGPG

[3] = target: T3, Gastrin/cholecystokinin type B receptor (Homo sapiens, UniProt P32239); experiment: Displacement of [125I]BH-CCK-8S from human recombinant CCK2 receptor expressed in NIH3T3 cells
T3 sequence (P32239 whole entry): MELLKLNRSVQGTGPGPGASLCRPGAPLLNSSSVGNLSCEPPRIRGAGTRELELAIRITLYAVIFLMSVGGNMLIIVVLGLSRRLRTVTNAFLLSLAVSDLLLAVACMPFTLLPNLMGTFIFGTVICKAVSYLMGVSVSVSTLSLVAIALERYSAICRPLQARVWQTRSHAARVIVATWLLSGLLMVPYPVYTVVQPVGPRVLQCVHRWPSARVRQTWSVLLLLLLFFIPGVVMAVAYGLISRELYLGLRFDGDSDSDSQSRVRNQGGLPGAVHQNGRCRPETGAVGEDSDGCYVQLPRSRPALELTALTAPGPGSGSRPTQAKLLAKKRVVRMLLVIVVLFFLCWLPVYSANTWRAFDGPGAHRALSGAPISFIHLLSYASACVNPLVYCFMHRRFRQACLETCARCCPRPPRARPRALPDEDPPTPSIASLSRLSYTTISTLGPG

[4] = target: T4, Gastrin/cholecystokinin type B receptor (Canis lupus familiaris) (UniProt P30552); experiment: Inhibition of pentagastrin-stimulated gastric acid secretion in intragastrically dosed conscious gastric fistula dog; assay type: functional, organism-based; details: Stomach
T4 sequence (whole entry): T2 sequence (P30552 whole entry)

[5] = target: T3, Gastrin/cholecystokinin type B receptor; experiment: Displacement of […] from human recombinant CCK2 receptor expressed in NIH3T3 cells; assay type: cell-based
[6] = target: T1, Cholecystokinin receptor type A; experiment: Displacement of [3H]L-364718 from human recombinant CCK1 receptor expressed in PC3 cells; assay type: cell-based, PC-3
[7] = Bioavailability in po dosed dog; assay type: ADME, organism-based, Canis lupus familiaris; details: in vivo
[8] = Cmax in po dosed dog; assay type: ADME, organism-based, Canis lupus familiaris; design: route oral; details: in vivo
[9] = Volume of distribution at steady state in dog at 2.5 mg/kg, iv; assay type: ADME, organism-based, Canis lupus familiaris; design: dose 2.5 mg/kg, route intravenous; details: in vivo, read-out: Vdss
[10] = Plasma clearance in dog at 2.5 mg/kg, iv; assay type: ADME, organism-based, Canis lupus familiaris; design: dose 2.5 mg/kg, route intravenous
[11] = target: T5, Gastrin/cholecystokinin type B receptor (Rattus norvegicus, UniProt P30553); experiment: Antagonist activity at CCK2 receptor in perfused rat stomach assessed as inhibition of pentagastrin-stimulated gastric acid secretion; assay type: functional, tissue-based; details: read-out: pA2 (converted)
T5 sequence (P30553 whole entry): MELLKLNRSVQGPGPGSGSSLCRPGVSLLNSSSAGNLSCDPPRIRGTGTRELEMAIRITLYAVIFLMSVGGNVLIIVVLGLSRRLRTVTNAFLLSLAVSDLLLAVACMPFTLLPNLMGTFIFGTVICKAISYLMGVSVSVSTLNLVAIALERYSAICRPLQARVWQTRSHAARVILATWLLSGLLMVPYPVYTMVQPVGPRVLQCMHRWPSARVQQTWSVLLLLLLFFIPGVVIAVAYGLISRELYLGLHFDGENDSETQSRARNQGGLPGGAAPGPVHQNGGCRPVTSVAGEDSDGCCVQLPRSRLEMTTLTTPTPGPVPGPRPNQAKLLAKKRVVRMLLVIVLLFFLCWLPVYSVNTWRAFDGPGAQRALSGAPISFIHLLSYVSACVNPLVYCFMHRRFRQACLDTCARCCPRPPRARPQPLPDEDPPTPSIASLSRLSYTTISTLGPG

[12] = Half life beta in po dosed dog; assay type: ADME, organism-based, Canis lupus familiaris; details: in vivo, read-out: beta t1/2 (converted)
[13] = target: T4, Gastrin/cholecystokinin type B receptor (Canis lupus familiaris); experiment: Inhibition of pentagastrin-stimulated gastric acid secretion in intraduodenal bolus dosed conscious dual gastric fistula dog; assay type: functional, organism-based; details: Stomach
[14] = target: T4, Gastrin/cholecystokinin type B receptor (Canis lupus familiaris); experiment: Inhibition of pentagastrin-stimulated gastric acid secretion in iv dosed conscious gastric fistula dog; assay type: functional, organism-based; details: Stomach

Question: For CC(C)(C)C(=O)CN1C(=O)N(CC(=O)Nc2cccc(-c3nc(=O)o[nH]3)c2)N=C(C2CCCCC2)c2ccccc21, which Ki [1] is on record?
Answer: 589 nM

Question: What about the Ki [2] of the same compound?
Answer: 4.47 nM

Question: What about the Ki [3] of the same compound?
Answer: 0.2 nM

Question: What about the Activity [4] of the same compound?
Answer: Dose-dependent effect

Question: Which results are given for CC(C)CC1=NN(CC(=O)Nc2cccc(C(=O)O)c2)C(=O)N(CC(=O)C(C)(C)C)c2ccccc21?
Answer: Ki [5]: 89.1 nM; Ki [6]: 7.08 µM

Question: With O=C(CN1N=C(C2CCCCC2)c2ccccc2N(CC(=O)C2CCCC2)C1=O)Nc1cccc(-c2nc(=O)o[nH]2)c1 as the compound, how does the Ki [1] read?
Answer: 468 nM

Question: What about the Ki [2] of the same compound?
Answer: 4.47 nM

Question: And the bioavailability [7]?
Answer: 41%

Question: And the Cmax [8]?
Answer: 15 µM

Question: What about the Vd [9] of the same compound?
Answer: 0.13 L/kg

Question: And the clearance [10]?
Answer: 3.33 mL/min/kg

Question: And the Kb [11]?
Answer: 1.82 nM

Question: What about the half-life [12] of the same compound?
Answer: 246 min

Question: And the Ki [3]?
Answer: 0.107 nM

Question: For O=C(CN1N=C(C2CCCCC2)c2ccccc2N(CC(=O)C2CCCC2)C1=O)Nc1cccc(-c2noc(=O)[nH]2)c1, which Activity [13] is on record?
Answer: Dose-dependent effect

Question: What about the ID50 [14] of the same compound?
Answer: < 0.03 mg/kg

Question: And the ID50 [4]?
Answer: 0.016 mg/kg

Question: For CC1(C(=O)CN2C(=O)N(CC(=O)Nc3cccc(C(=O)O)c3)N=C(C3CCCCC3)c3ccccc32)CCCC1, which Ki [1] is on record?
Answer: 3980 nM

Question: And the Ki [5]?
Answer: 1.2 nM

Question: Which Ki [2] does the source give for CC(C)(C)C(=O)CN1C(=O)N(CC(=O)Nc2cccc(CC(=O)O)c2)N=C(C2CCCCC2)c2ccccc21 here?
Answer: 5.25 nM

Question: And the Ki [6]?
Answer: > 10 µM

Question: And the Kb [11]?
Answer: 9.77 nM

Question: What about the Activity [14] of the same compound?
Answer: Dose-dependent effect

Question: And the Ki [3]?
Answer: 2.14 nM

— ChEMBL document CHEMBL1145380, “Optimization of 1,3,4-benzotriazepine-based CCK(2) antagonists to obtain potent, orally active inhibitors of gastrin-mediated gastric acid secretion” (J Med Chem, 2007)
